Results taken from US20190091187A1 (Orbus Therapeutics, Inc., priority 2016, published 2019).
Like-named read-outs stand apart in the source and are kept apart here.

Key:
Big Blue Rat-2 cells = settings: 9.1 at 0 mM, cited from earlier work
low-grade gliomas = settings: adjuvant chemotherapy; recurrent tumors; driver mutations in RB and AKT-mTOR pathways; cited from earlier work
[1] = tested on: newly diagnosed AG and GBM patients; experiment: Phase 3 study of eflornithine with PCV versus PCV, adverse events; assay type: in vivo, human; settings: Eflornithine-PCV minus PCV, N = 500
Text: As used herein, the term “toxicity” refers to any one of the side effects referred to above in Table 2, regardless of the severity of the side effect or its possible effect on the course of treatment.

[2] = tested on: AG and GBM patients treated at recurrence; settings: 3.6 g/m^2 every 8 hours, N = 89, cited from earlier work
[3] = tested on: biopsied skin actinic keratosis; settings: topical, compared to placebo-treated skin, cited from earlier work
neuroblastoma cells = settings: arrest of cell division between G1 and mitosis; cited from earlier work

## Cn1nnc2c(C(N)=O)ncn2c1=O [TMZ, temozolomide]
Big Blue Rat-2 cells; 0.5 mM TMZ
  lacI mutation frequency: 48.9
Big Blue Rat-2 cells; 1 mM TMZ
  lacI mutation frequency: 89.7
low-grade gliomas
  patients whose tumors followed an alternative evolutionary path to high-grade glioma with hypermutation: 6 of 10

## eflornithine
[1]; Toxicity Grade 1
  Anemia, Excess AEs due to Eflornithine: 12.5%
  Anorexia, Excess AEs due to Eflornithine: −1.5%
  Constipation, Excess AEs due to Eflornithine: −1.9%
  Diarrhea, Excess AEs due to Eflornithine: 25.4%
  Fatigue, Excess AEs due to Eflornithine: 4.7%
  Granulocytopenia, Excess AEs due to Eflornithine: 2.4%
  Headache, Excess AEs due to Eflornithine: −1.9%
  Hearing loss, Excess AEs due to Eflornithine: 0.0%
  Leukopenia, Excess AEs due to Eflornithine: −3.4%
  Nausea only, Excess AEs due to Eflornithine: 1.0%
  Pruritis and itching, Excess AEs due to Eflornithine: −0.7%
  Thrombocytopenia, Excess AEs due to Eflornithine: 4.6%
  Vomiting, Excess AEs due to Eflornithine: 5.2%
[1]; Toxicity Grade 2
  Anemia, Excess AEs due to Eflornithine: 15.6%
  Anorexia, Excess AEs due to Eflornithine: 2.5%
  Constipation, Excess AEs due to Eflornithine: −0.7%
  Diarrhea, Excess AEs due to Eflornithine: 17.4%
  Fatigue, Excess AEs due to Eflornithine: 6.9%
  Granulocytopenia, Excess AEs due to Eflornithine: 1.1%
  Headache, Excess AEs due to Eflornithine: 1.3%
  Hearing loss, Excess AEs due to Eflornithine: 1.2%
  Leukopenia, Excess AEs due to Eflornithine: 1.2%
  Nausea only, Excess AEs due to Eflornithine: 0.0%
  Pruritis and itching, Excess AEs due to Eflornithine: 0.9%
  Thrombocytopenia, Excess AEs due to Eflornithine: 10.5%
  Vomiting, Excess AEs due to Eflornithine: 1.1%
[1]; Toxicity Grade 3
  Anemia, Excess AEs due to Eflornithine: 4.5%
  Anorexia, Excess AEs due to Eflornithine: 1.2%
  Constipation, Excess AEs due to Eflornithine: 0.4%
  Diarrhea, Excess AEs due to Eflornithine: 6.0%
  Fatigue, Excess AEs due to Eflornithine: 0.8%
  Granulocytopenia, Excess AEs due to Eflornithine: −3.9%
  Headache, Excess AEs due to Eflornithine: 0.4%
  Hearing loss, Excess AEs due to Eflornithine: 0.8%
  Leukopenia, Excess AEs due to Eflornithine: 0.0%
  Nausea only, Excess AEs due to Eflornithine: 0.9%
  Pruritis and itching, Excess AEs due to Eflornithine: −0.3%
  Thrombocytopenia, Excess AEs due to Eflornithine: 3.5%
  Vomiting, Excess AEs due to Eflornithine: 4.5%
[1]; Toxicity Grade 4
  Anemia, Excess AEs due to Eflornithine: 2.0%
  Anorexia, Excess AEs due to Eflornithine: 0.0%
  Constipation, Excess AEs due to Eflornithine: 0.4%
  Diarrhea, Excess AEs due to Eflornithine: 0.8%
  Fatigue, Excess AEs due to Eflornithine: 0.0%
  Granulocytopenia, Excess AEs due to Eflornithine: 1.8%
  Headache, Excess AEs due to Eflornithine: 0.0%
  Hearing loss, Excess AEs due to Eflornithine: 0.0%
  Leukopenia, Excess AEs due to Eflornithine: 0.9%
  Nausea only, Excess AEs due to Eflornithine: 0.0%
  Pruritis and itching, Excess AEs due to Eflornithine: 0.0%
  Thrombocytopenia, Excess AEs due to Eflornithine: 2.1%
  Vomiting, Excess AEs due to Eflornithine: −1.2%
[2]; Toxicity Grade 1
  Ototoxicity, patients (%): (7.9) %
  Ototoxicity, patients n: 7
[2]; Toxicity Grade 2
  Ototoxicity, patients (%): (5.6) %
  Ototoxicity, patients n: 5
[2]; Toxicity Grade 3
  Ototoxicity, patients (%): (6.7) %
  Ototoxicity, patients n: 6
[3]; P=0.04
  reduced the percentage of p53-positive cells: 22%
[3]
  reduction of the frequency of p53 mutations: not the frequency of p53 mutations
Neuroblastoma cells
  effect on intracellular proteins p21 and p27kip-1: increase
